Assay results reported in PubChem BioAssay (NCI).
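Results reflect a 48-hour exposure of cells in 96-well plates to compound at five concentrations. GI50: concentration for 50% inhibition of growth. At the TGI there is no net growth.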

How the values were obtained:
Assay in all cases: inhibition of tumour cell growth, NCI panel, 48 h
[1] = test system: NCI-H522 lung
[2] = test system: SN12C renal
[3] = test system: UACC-62 melanoma
[4] = test system: HT29 colon
[5] = test system: SK-MEL-28 melanoma
[6] = test system: LOX IMVI melanoma
[7] = test system: UO-31 renal
[8] = test system: MALME-3M melanoma
[9] = test system: OVCAR-5 ovarian
[10] = test system: SF-268 CNS
[11] = test system: MDA-MB-231 breast
[12] = test system: OVCAR-4 ovarian
[13] = test system: HCT-116 colon
[14] = test system: EKVX NSCLC
[15] = test system: SF-295 CNS
[16] = test system: MCF7 breast
[17] = test system: DU-145 prostate
[18] = test system: IGROV1 ovarian
[19] = test system: OVCAR-3 ovarian
[20] = test system: ACHN renal
[21] = test system: PC-3 prostate
[22] = test system: CCRF-CEM leukemia
[23] = test system: HL-60(TB) leukemia
[24] = test system: SF-539 CNS
[25] = test system: BT-549 breast
[26] = test system: NCI-H226 lung
[27] = test system: NCI-H23 lung
[28] = test system: COLO 205 colon
[29] = test system: NCI-H460 lung
[30] = test system: SNB-19 CNS
[31] = test system: HOP-92 NSCLC
[32] = test system: A498 renal
[33] = test system: SNB-75 CNS
[34] = test system: MOLT-4 leukemia
[35] = test system: HCC-2998 colon
[36] = test system: UACC-257 melanoma
[37] = test system: K-562 leukemia
[38] = test system: SK-OV-3 ovarian
[39] = test system: MDA-MB-435
[40] = test system: HS 578T breast
[41] = test system: OVCAR-8 ovarian
[42] = test system: T-47D breast
[43] = test system: KM12 colon
[44] = test system: SW-620 colon
[45] = test system: U251 CNS
[46] = test system: RXF 393 renal
[47] = test system: CAKI-1 renal
[48] = test system: SK-MEL-5 melanoma
[49] = test system: A549 NSCLC
[50] = test system: SK-MEL-2 melanoma
[51] = test system: HOP-62 NSCLC
[52] = test system: MDA-MB-468 breast
[53] = test system: 786-0 renal
[54] = test system: SR leukemia
[55] = test system: HCT-15 colon
[56] = test system: M14 melanoma
[57] = test system: TK-10 renal
[58] = test system: RPMI-8226 leukemia
[59] = test system: NCI/ADR-RES ovarian

CC(C)N=C([Se])NC(=O)c1cccs1
GI50 [1]: 14.4 µM | TGI [1]: 28.1 µM | GI50 [2]: 10.9 µM | TGI [2]: 23.9 µM | GI50 [3]: 14.1 µM | TGI [3]: 28.7 µM | GI50 [4]: 18.4 µM | TGI [4]: 46.6 µM | GI50 [5]: 16.9 µM | TGI [5]: 35.1 µM | GI50 [6]: 13.2 µM | TGI [6]: 27.2 µM | GI50 [7]: 13.8 µM | TGI [7]: 26.7 µM | GI50 [8]: 17 µM | TGI [8]: 33.2 µM | GI50 [9]: 16 µM | TGI [9]: 31.4 µM | GI50 [10]: 19.9 µM | TGI [10]: 57.1 µM | GI50 [11]: 17.6 µM | TGI [11]: 36.1 µM | GI50 [12]: 16.8 µM | TGI [12]: 36 µM | GI50 [13]: 4.78 µM | TGI [13]: 18.4 µM | GI50 [14]: 7.45 µM | TGI [14]: 20.8 µM | GI50 [15]: 2.18 µM | TGI [15]: 6.77 µM | GI50 [16]: 6.58 µM | TGI [16]: 35.2 µM | GI50 [17]: 19.3 µM | TGI [17]: 40 µM | GI50 [18]: 8.04 µM | TGI [18]: 21.1 µM | GI50 [19]: 14.9 µM | TGI [19]: 28.6 µM | GI50 [20]: 18 µM | TGI [20]: 37.4 µM | GI50 [21]: 4.06 µM | TGI [21]: 16.6 µM | GI50 [22]: 17.4 µM | TGI [22]: 50.6 µM | GI50 [23]: 20.3 µM | TGI [23]: 55.6 µM | GI50 [24]: 13.2 µM | TGI [24]: 26.1 µM | GI50 [25]: 15.4 µM | TGI [25]: 31 µM | GI50 [26]: 16.3 µM | TGI [26]: 35.3 µM | GI50 [27]: 10.2 µM | TGI [27]: 23.8 µM | GI50 [28]: 16.8 µM | TGI [28]: 31.7 µM | GI50 [29]: 3.37 µM | TGI [29]: 19 µM | GI50 [30]: 4.82 µM | TGI [30]: 20 µM | GI50 [31]: 22.1 µM | TGI [31]: 51.6 µM | GI50 [32]: 6.55 µM | TGI [32]: 59.2 µM | GI50 [33]: 5.51 µM | TGI [33]: 21.3 µM | GI50 [34]: 20.8 µM | TGI [34]: 58.1 µM | GI50 [35]: 5.8 µM | TGI [35]: 18.4 µM | GI50 [36]: 15.5 µM | TGI [36]: 29.8 µM | GI50 [37]: 28.4 µM | TGI [37]: 87.1 µM | GI50 [38]: 16.2 µM | TGI [38]: 30.5 µM | GI50 [39]: 16.3 µM | TGI [39]: 33 µM | GI50 [40]: 7.16 µM | TGI [40]: 32 µM | GI50 [41]: 15.6 µM | TGI [41]: 29.5 µM | GI50 [42]: 19.4 µM | TGI [42]: 48.8 µM | GI50 [43]: 12.1 µM | TGI [43]: 26.2 µM | GI50 [44]: 16.7 µM | TGI [44]: 33 µM | GI50 [45]: 7.84 µM | TGI [45]: 21.5 µM | GI50 [46]: 12.2 µM | TGI [46]: 24.8 µM | GI50 [47]: 17 µM | TGI [47]: 32.6 µM | GI50 [48]: 2.82 µM | TGI [48]: 14.3 µM | GI50 [49]: 4.3 µM | TGI [49]: 33.1 µM | GI50 [50]: 15.7 µM | TGI [50]: 34.5 µM | GI50 [51]: 4.11 µM | TGI [51]: 19.1 µM | GI50 [52]: 16.5 µM | TGI [52]: 34.6 µM | GI50 [53]: 17.7 µM | TGI [53]: 31.9 µM | GI50 [54]: 12.6 µM | TGI [54]: 49.9 µM | GI50 [55]: 18.4 µM | TGI [55]: 37.5 µM | GI50 [56]: 12.7 µM | TGI [56]: 26.6 µM | GI50 [57]: 16 µM | TGI [57]: 29.5 µM | GI50 [58]: 19.9 µM | TGI [58]: 56.4 µM

O=C(CSc1nnc(-c2ccc3nc(-c4ccc(Cl)cc4)[nH]c3c2)o1)Nc1ccc(Cl)cc1
GI50 [1]: 2.05 µM | TGI [1]: 5.61 µM | GI50 [2]: 1.69 µM | TGI [2]: 3.19 µM | GI50 [3]: 1.56 µM | TGI [3]: 3.37 µM | GI50 [5]: 1.94 µM | TGI [5]: 4.22 µM | GI50 [6]: 1.54 µM | TGI [6]: 2.88 µM | GI50 [7]: 1.61 µM | TGI [7]: 4.02 µM | GI50 [8]: 1.86 µM | TGI [8]: 4.07 µM | GI50 [9]: 8.68 µM | TGI [9]: 23.9 µM | GI50 [10]: 3.18 µM | TGI [10]: 77.9 µM | GI50 [11]: 1.66 µM | TGI [11]: 3.11 µM | GI50 [12]: 2.61 µM | TGI [12]: 7.73 µM | GI50 [14]: 2.04 µM | TGI [14]: 6.43 µM | GI50 [15]: 1.64 µM | TGI [15]: 3.14 µM | GI50 [16]: 1.76 µM | TGI [16]: 4.08 µM | GI50 [17]: 2.53 µM | TGI [17]: 6.35 µM | GI50 [18]: 2.24 µM | TGI [18]: 7.98 µM | GI50 [20]: 1.51 µM | TGI [20]: 3.19 µM | GI50 [21]: 2.44 µM | TGI [21]: 7.99 µM | GI50 [23]: 2.43 µM | TGI [23]: 7.59 µM | GI50 [24]: 1.55 µM | TGI [24]: 2.9 µM | GI50 [25]: 2.33 µM | TGI [25]: 5 µM | GI50 [26]: 1.72 µM | TGI [26]: 4.33 µM | GI50 [27]: 1.65 µM | TGI [27]: 3.24 µM | GI50 [28]: 3.52 µM | TGI [28]: 28.5 µM | GI50 [29]: 1.77 µM | TGI [29]: 3.38 µM | GI50 [30]: 2.04 µM | TGI [30]: 4.52 µM | GI50 [31]: 2.33 µM | TGI [31]: 6.86 µM | GI50 [32]: 12.3 µM | TGI [32]: 26.4 µM | GI50 [33]: 1.75 µM | TGI [33]: 5.58 µM | GI50 [34]: 2.6 µM | TGI [34]: > 100 µM | GI50 [35]: 3.63 µM | TGI [35]: 14.4 µM | GI50 [36]: 2.4 µM | TGI [36]: 6.24 µM | GI50 [37]: 2.89 µM | TGI [37]: > 100 µM | GI50 [38]: 3.89 µM | TGI [38]: 14.1 µM | GI50 [40]: 2.43 µM | TGI [40]: 8.1 µM | GI50 [42]: 7.07 µM | TGI [42]: 68.2 µM | GI50 [59]: 2.55 µM | TGI [59]: 6.92 µM | GI50 [43]: 2.78 µM | TGI [43]: 27 µM | GI50 [44]: 2.18 µM | TGI [44]: 5.72 µM | GI50 [46]: 1.59 µM | TGI [46]: 3.7 µM | GI50 [47]: 1.62 µM | TGI [47]: 3.79 µM | GI50 [48]: 1.97 µM | TGI [48]: 4.2 µM | GI50 [50]: 2.53 µM | TGI [50]: 7.08 µM | GI50 [51]: 2.3 µM | TGI [51]: 5.46 µM | GI50 [52]: 2.41 µM | TGI [52]: 6.19 µM | GI50 [54]: 3.6 µM | TGI [54]: > 100 µM | GI50 [55]: 1.37 µM | TGI [55]: 3.18 µM | GI50 [56]: 2.11 µM | TGI [56]: 5.01 µM | GI50 [57]: 10.3 µM | TGI [57]: 26.5 µM
